Measurements reported in patent US5880134A, “Method for using ergoline compounds to effect physiological and pathological functions at the 5-HT7 receptor” (Eli Lilly and Company, priority 1997, dated 1999).

What was measured:
[1] = target: T1, human 5-HT7 receptor (Homo sapiens, UniProt P34969); settings: cited from earlier work; for pharmacological profile (rank order of affinity): human 5-HT7, [3H]5-HT competition
[2] = system: rat 5-HT7 receptor; settings: cited from earlier work; for pharmacological profile (rank order of affinity): rat 5-HT7, [125I]LSD and [3H]5-HT
[3] = system: contractile 5-HT receptor in the canine coronary artery; assay: Contraction of endothelium-denuded canine coronary artery under basal tone; type: cell-based
Method: (§1) Hearts were obtained from mongrel dogs anesthetized with sodium pentobarbital (30 mg/kg, i.v.) and placed in oxygenated modified Krebs' solution of the following composition (millimolar): NaCl, 118; KCl, 4.6; CaCl2, 1.6; KH2 PO4, 1.2; MgSO4 1.2, glucose, 10; NaHCO3 24.8 (pH 7.4). The left anterior descending and circumflex coronary arteries were dissected from the hearts, cleaned of fat and adhering tissue and cut into rings (approximately 2-3 mm outer diameter and 4-5 mm in length). The intimal surface of the rings was gently rubbed with a pair of forceps to remove the endothelium. Tissues were then mounted between two stainless steel hooks and placed in 10 ml organ chambers constantly exposed to oxygenated modified Krebs' solution (95% O2 /5% CO2; pH 7.4; 37° C.). Tissues were equilibrated for 1 hour under an initial optimal passive force of 4 g determined previously from length-tension experiments. The buffer was replaced every 15 minutes during equilibration. Isometric force was measured with Statham UC3 force transducers connected to a Beckman dynograph (R611). After 1 hr equilibration, tissues were depolarized twice with 50 mM KCl for 30 min with a 20 min washing period between. The integrity of the endothelium was examined with acetylcholine (1 μM), bradykinin (100 nM), or the ionophore A23187 (1 μM). Rings that relaxed to these agents were not used in this study.
Tissues prepared as described in Example 1 were precontracted with PGF2α (10 μM) which produced a tonic contraction that remained at or above 92.8±2.1% (n=14) of the original maximum force throughout the experiment. Cumulative concentration-response curves to 5-HT were generated in tissues incubated with either vehicle or antagonist for 1 hr. In some experiments contraction was measured in tissues under basal tone upon the cumulative addition of 5-HT. These tissues were treated with prazosin (1 μM) to block any potential a adrenoceptor activation and in the absence or presence of antagonist.
(§2) All results are expressed as mean ±S.E. where "n" represents the number of rings examined. No more than two rings were used from each animal for each compound studied. The relaxation data is expressed as percent relaxation of the contraction produced by PGF2α. The contraction data is expressed as percent of a maximal KCl (50 mM) contraction. The EC50 was the concentration of the agonist producing half-maximal response and was determined by least squares linear regression analysis of the linear portion or the agonist concentration-response curve and expressed as -log C50 (pEC50)

[4] = target: T2, 5-HT7 receptor in the dog coronary artery (Canis lupus familiaris, UniProt A0A8I3S709); assay: 5-HT-induced relaxation of endothelium-denuded canine coronary artery rings precontracted with PGF2α (Schild / dissociation constant analysis); type: cell-based; settings: for relaxant activity in canine coronary artery: agonist; for pEC50 values between vehicle and compound-treated tissues: 1 μM, p<0.05, Student's t-test; for blockade of 5-HT-induced relaxation: compounds III and V 1 μM, compound IV 10-100 nM, 1 hr incubation; for slope of the Schild regression: Schild plot; for slope: Table 2, Schild regression
T2 construct: The left anterior descending and circumflex coronary arteries were dissected from the hearts; from tissue; host or cells: dog left anterior descending and circumflex coronary artery rings (mongrel dogs), endothelium removed
Method: as §1
Cumulative concentration-response curves to 5-HT were generated in tissues incubated with either vehicle or antagonist for 1 hr. In some experiments contraction was measured in tissues under basal tone upon the cumulative addition of 5-HT. These tissues were treated with prazosin (1 μM) to block any potential a adrenoceptor activation and in the absence or presence of antagonist.
as §2
Apparent antagonist dissociation constants (KB) were determined for each antagonist according to the following equation: [formula] where (B) is the concentration of the antagonist and dose ratio is the EC50 of the agonist in the presence of the antagonist divided by the EC50 of the agonist in vehicle treated tissues. […] Significant differences between vehicle and antagonist treated tissues were determined with Student's t-test. The alpha value was set a priori at 0.05.
The data was also analyzed in accord with the procedure of Arunlakshana and Schild (1959). The dose ratio was determined at various concentrations of antagonist compound II or compound IV. If blockade is competitive under equilibrium conditions a plot of the logarithm (dose ratio--1) against the negative logarithm of the molar concentration of antagonist should yield a straight line whose slope is not different from unity and whose intercept on the abscissa is the pA2, which is generally considered to be equivalent to -log KB.

[5] = system: contractile 5-HT receptor in the canine coronary artery; settings: agonist alone, vessels under basal tone, as previously reported (Cushing et al.); cited from earlier work
[6] = Bioavailability after oral administration in rats; type: in vivo, rat
[7] = target: T1, human 5-HT7 receptor; assay: Receptor binding at the human 5-HT7 receptor
Description: The general chemical structure for three particularly useful compounds of the invention (compounds III-V) are shown below: [drawing 3]
The KD and --logKB value for compound II, a known 5-HT7 antagonist, and two compounds employed by the present invention, compound III and IV, are shown in Table 1.

[8] = system: 5-HT7 receptor; settings: expressed in mammalian cells; cited from earlier work
[9] = compared with ester compounds II and V

T2 sequence (A0A8I3S709 1-435): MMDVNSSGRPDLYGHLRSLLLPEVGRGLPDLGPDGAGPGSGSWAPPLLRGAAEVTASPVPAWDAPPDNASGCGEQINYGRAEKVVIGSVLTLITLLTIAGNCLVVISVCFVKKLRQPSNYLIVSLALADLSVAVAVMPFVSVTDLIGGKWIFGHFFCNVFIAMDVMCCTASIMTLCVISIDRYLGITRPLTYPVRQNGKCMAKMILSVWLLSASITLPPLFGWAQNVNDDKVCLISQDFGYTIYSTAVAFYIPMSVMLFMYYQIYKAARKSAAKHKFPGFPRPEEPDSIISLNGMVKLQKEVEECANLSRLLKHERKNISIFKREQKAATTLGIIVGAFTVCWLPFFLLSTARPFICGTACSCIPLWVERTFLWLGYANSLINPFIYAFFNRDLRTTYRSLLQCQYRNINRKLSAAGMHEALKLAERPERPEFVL
T1 sequence (P34969 1-445 isoform P34969-2): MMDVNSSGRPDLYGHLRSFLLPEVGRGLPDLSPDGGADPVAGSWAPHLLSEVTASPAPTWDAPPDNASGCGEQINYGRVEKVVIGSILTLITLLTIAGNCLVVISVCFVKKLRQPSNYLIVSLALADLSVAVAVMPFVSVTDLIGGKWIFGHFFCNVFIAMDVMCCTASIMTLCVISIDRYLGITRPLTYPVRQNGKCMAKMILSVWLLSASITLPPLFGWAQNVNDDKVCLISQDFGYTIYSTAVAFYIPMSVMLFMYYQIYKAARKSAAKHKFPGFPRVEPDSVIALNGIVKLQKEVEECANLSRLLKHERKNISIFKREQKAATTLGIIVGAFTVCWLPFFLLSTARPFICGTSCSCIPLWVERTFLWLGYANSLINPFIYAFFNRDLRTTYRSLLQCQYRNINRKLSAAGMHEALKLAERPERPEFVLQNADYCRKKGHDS

CCCN(CCC)C1CCc2cccc(O)c2C1 (stereo not shown) [8-OH DPAT, 8-hydroxy-2-(di-n-propyl-amino)-tetralin]
pharmacological profile (rank order of affinity) [1]: 5CT>5 MeOT≥5HT>8-OH DPAT | pharmacological profile (rank order of affinity) [2]: 5CT>5MeOT≥5HT>8-OH-DPAT

NCCc1c[nH]c2ccc(C(N)=O)cc12 [Compound 5-CT, 5-carboxamidotryptamine]
pharmacological profile (rank order of affinity) [1]: 5CT>5 MeOT≥5HT>8-OH DPAT | affinity of 5CT over serotonin ([1]; human 5-HT7): greater affinity of 5CT over serotonin | contraction by agonist ([3]; agonist alone, under basal tone or precontracted): did not significantly contract coronary arteries | contraction by agonist in the presence of compound IV ([3]; compound IV 1 μM, basal tone): concentration-dependently contracted canine coronary artery | relaxant activity in canine coronary artery [4]: potent relaxant agonist | affinity of canine coronary artery relaxant receptor for 5CT versus serotonin [4]: highest affinity for 5-HT7 receptors | affinity of canine coronary artery relaxant receptor for 5CT versus serotonin ([4]; listed as 5CT): greater affinity for 5CT than for the endogenous agonist serotonin | pharmacological profile (rank order of affinity) [2]: 5CT>5MeOT≥5HT>8-OH-DPAT | binding affinity of 5CT over serotonin ([2]; rat 5-HT7): higher binding affinity of 5CT over serotonin

NCCc1c[nH]c2ccc(O)cc12 [Compound 5-HT, 5-hydroxytryptamine]
pharmacological profile (rank order of affinity) [1]: 5CT>5 MeOT≥5HT>8-OH DPAT | contractile response of agonist [5]: produced a biphasic contractile response | pharmacological profile (rank order of affinity) [2]: 5CT>5MeOT≥5HT>8-OH-DPAT

COc1ccc2[nH]cc(CCN)c2c1 [Compound 5-MeOT, 5-methoxytryptamine]
pharmacological profile (rank order of affinity) [1]: 5CT>5 MeOT≥5HT>8-OH DPAT | contractile response of agonist [5]: produced a biphasic contractile response | pharmacological profile (rank order of affinity) [2]: 5CT>5MeOT≥5HT>8-OH-DPAT

CC(C)n1cc2c3c(cccc31)C1CC(C(=O)NC3CCCCC3)CN(C)C1C2 (stereo not shown) [Compound III]
Kb [4]: 200 nM | pEC50 values between vehicle and compound-treated tissues [4]: significantly different | blockade of 5-HT-induced relaxation ([4]; compound II 0.3-10 μM): blocked 5-HT-induced relaxation in endothelium-denuded canine coronary artery rings in a competitive manner | bioavailability [6, 9]: greater bioavailability than the ester compounds II and V | binding affinity to the human 5-HT7 receptor (in words) [7]: high binding affinity

CC(O)C(C)OC(=O)C1CC2c3cccc4c3c(cn4C(C)C)CC2N(C)C1 (stereo not shown) [Compound II]
Kb [4]: 316 nM | Schild slope versus unity ([4]; FIG. 1 lower panel): not significantly different from unity | slope of the Schild regression [4]: 0.92 | slope [4]: 0.92 | maximum relaxant response to 5-HT ([4]; compound II 0.3-10 μM): did not alter the maximum relaxant response | blockade of 5-HT-induced relaxation ([4]; compound II 0.3-10 μM): shifted the concentration-response curve to 5-HT significantly to the right

CC(C)n1cc2c3c(cccc31)C1CC(C(=O)NC3CCCC3O)CN(C)C1C2 (stereo not shown) [Compound IV]
effect on contractile response produced by 5-HT and 5-MeOT ([3]; 1 μM, basal tone): not affecting the contractile response | effect on relaxant phase of 5-HT and 5-MeOT response ([3]; 1 μM, basal tone): significantly attenuated the relaxant phase | effect on sumatriptan-induced contraction ([3]; 1 μM, basal tone, FIG. 7): did not significantly affect sumatriptan-induced contraction | Kb [4]: 5.01 nM | slope of the Schild regression [4]: 0.98 | slope [4]: 0.98 | blockade of 5-HT-induced relaxation ([4]; compound II 0.3-10 μM): blocked 5-HT-induced relaxation in endothelium-denuded canine coronary artery rings in a competitive manner | bioavailability [6, 9]: greater bioavailability than the ester compounds II and V | binding affinity to the human 5-HT7 receptor (in words) [7]: high binding affinity

COC1CCC(OC(=O)C2CC3c4cccc5c4c(cn5C(C)C)CC3N(C)C2)CC1 (stereo not shown) [Compound V]
Kb [4]: 398 nM | pEC50 values between vehicle and compound-treated tissues [4]: significantly different | blockade of 5-HT-induced relaxation ([4]; compound II 0.3-10 μM): blocked 5-HT-induced relaxation in an apparently competitive manner | bioavailability ([6]; compared with compound II): higher bioavailability than compound II

CCCCC[C@H](O)/C=C/[C@@H]1[C@@H](C/C=C\CCCC(=O)O)[C@@H](O)C[C@H]1O [PGF2α]
contraction retained throughout the experiment ([4]; PGF2α 10 μM, of the original maximum force, n=14): ≥ 92.8±2.1%

CN(C)CCC=C1c2ccccc2CCc2ccccc21 [amitriptyline]
affinity for the 5-HT7 receptor [8]: high affinity

CN1CCN(C2=Nc3cc(Cl)ccc3Nc3ccccc32)CC1 [clozapine]
affinity for the 5-HT7 receptor [8]: high affinity

CN1CCN(C2=Nc3ccccc3Oc3ccc(Cl)cc32)CC1 [loxapine]
affinity for the 5-HT7 receptor [8]: high affinity

CNS(=O)(=O)Cc1ccc2[nH]cc(CCN(C)C)c2c1 [sumatriptan]
relaxant activity in canine coronary artery [4]: lacking relaxant activity
